According to US4243668A, “Octahydro-1H-benzo[4,5]furo[3,2-e]-isoquinoline analgesic and narcotic antagonistic compounds” (priority 1979, dated 1981):
Where two headings read alike, the source gives them in different places.

Legend:
[1] = tested on: induction of Straub tail in mice by a highly addicting agonist such as morphine; details: Blumberg et al. 1968; cited from earlier work
[2] = cited from earlier work; for intrinsic analgesic activity, in words: background statement
Straub tail = Straub tail reaction (oral), narcotic agonist effect; format: in vivo, CF1 S female mice; details: Mus musculus, mice
Experimental: Narcotic analgesics produce in mice an erection and arching of the tail (90° or more) which is referable to spinal cord stimulation. This Straub tail reaction is not produced by other analgesics, including the narcotic antagonists.
The method used was modified from Shemano, I., and Wendel, H., Tox. Appl. Pharm., 6, 334-9 (1964). CF1 S female mice (18-21 g), 10-20 mice per dose, were intubated with log scaled doses of analgesic in 1% aqueous methylcellulose. A positive Straub tail response was recorded if a tail was erected 90° or more for 5 seconds at any time within 24 minutes after dosing. A quantal Straub tail ED50 was calculated by the moving average method [Thompson, W. R., Bact. Rev., 11, 115-145 (1947)].

[3] = tested on: pain induced by phenylquinone; assay: phenylquinone writhing test (oral anti-PQW), analgesic activity; format: in vivo, female white mice; details: for ED50: Mus musculus, po, mice, oral, phenylquinone writhing, read-out: EFFECT ED50 Oral Anti-PQW
Experimental: A standard procedure for detecting and comparing the analgesic activity of compounds in this series for which there is good correlation with human efficacy is the standard phenylquinone writhing test modified from Siegmund, et al., Proc. Soc. Exp. Biol. Med., 95, 729 (1957). A test compound suspended in 1% methocel® was given orally to fasted (17-21 hours) female white mice, 5-20 animals per double blind test. Aqueous (0.01% phenyl-p-benzoquinone) phenylquinone was injected intraperitoneally at 24 minutes later using 0.20 ml per mouse. […] The effective analgesic dose for 50% of the mice (ED50) was calculated by the moving average method of Thompson, W. R., Bact. Rev., 11, 115-145 (1947).

[4] = tested on: induction of Straub tail in mice by a highly addicting agonist such as morphine; assay: anti-Straub tail test, antagonism of morphine-induced Straub tail (narcotic antagonism); format: in vivo, Female CF1 S mice; details: Mus musculus, mice, vs morphine sulfate 30 mg/kg i.p.
[5] = sc, s.c., read-out: EFFECT ED50 subcutaneous(s.c.) Anti-Straub Tail

SMILES | ED50 (Straub tail) | ED50 [3] | ED50 [4, 5] | further results
C=CCN1CC[C@]23c4c5ccc(O)c4O[C@H]2C(=O)CC[C@@]3(O)[C@H]1C5 [naloxone] | – | – | – | prevention of morphine-induced Straub tail, in words [1]: prevent the induction of Straub tail in mice
C=CCN1CC[C@]23CCCC[C@H]2[C@H]1Cc1ccc(O)cc13 [levallorphan] | – | – | – | intrinsic analgesic activity, in words [2]: some analgesic effects
C=CCN1CC[C@]23c4c5ccc(O)c4O[C@H]2[C@@H](O)C=C[C@H]3[C@H]1C5 [nalorphine] | – | – | – | prevention of morphine-induced Straub tail, in words [1]: prevent the induction of Straub tail in mice; intrinsic analgesic activity, in words [2]: some analgesic effects; analgetic properties in man, in words ([2]; in man, Lasagna and Beecher 1954): analgetic properties in man
COc1cccc2c1O[C@H]1CCC[C@H]3CN(CC4CC4)CC[C@@]231 (relative stereo) [Example 4, 3-Cyclopropylmethyl-9-methoxy-2,3,4,4aα,5,6,7,7aα-octahydro-1H-benzo[4,5]furo[3,2-e]isoquinoline] | > 135 mg/kg | 19.7 mg/kg | – | ED50 ([4]; ip, i.p., read-out: EFFECT ED50 Intraperitoneal(i.p.) Anti-Straub Tail): 0.31 mg/kg
Oc1cccc2c1O[C@H]1CCC[C@H]3CN(CC4CC4)CC[C@@]231 (relative stereo) [Example 5, 3-Cyclopropylmethyl-2,3,4,4aα,5,6,7,7aα-octahydro-1H-benzo[4,5]furo[3,2-e]isoquinolin-9-ol] | > 81 mg/kg | 0.75 mg/kg | 0.006 mg/kg | analgesic potency compared with morphine ([3]; mouse analgesia data, relative to morphine): several times greater potency than morphine
Cc1ccc(CCN2CCC34c5cccc(O)c5OC3CCCC4C2)cc1 (stereo not drawn) [Example 36] | 39 mg/kg | 0.67 mg/kg | > 81 mg/kg | –
CCCCN1CCC23c4cccc(O)c4OC2CCCC3C1 (stereo not drawn) [Example 24] | > 135 mg/kg | 23 mg/kg | 0.032 mg/kg | –
C=CCN1CC[C@]23c4cccc(O)c4O[C@H]2CCC[C@H]3C1 (relative stereo) [Example 16, 3-Allyl-2,3,4,4aα,5,6,7,7aα-octahydro-1H-benzo[4,5]furo[3,2-e]isoquinolin-9-ol] | > 81 mg/kg | 81 mg/kg | 0.03 mg/kg | –
CC(C)=CCN1CCC2(C)c3cc(O)ccc3CC1C2C (stereo not drawn) [Pentazocine, reference compound] | > 135 mg/kg | 56 mg/kg | 4 mg/kg | –
